Reference: US9771592B2, “Methods and compositions for treating or preventing pruritis” (The Johns Hopkins University, priority 2008, dated 2017)
Where “and” joins values, the source holds several entries; their conditions need not be identical. Identical values can stand only once. Like-named read-outs stand apart in the source and are kept apart here. Blank lines part the entries; values can stand above or below the molecule they belong to.

Tests used:
MrgprA4 = target: T1, MrgprA4 (Mus musculus, UniProt Q91WW2); experiment: Calcium imaging of HEK293 cells transfected with Mrgpr-GFP constructs; assay type: cell-based; conditions: NPFF 2 μM
T1 construct: expressed in transfected cells; host or cells: HEK293
T1 sequence (Q91WW2 1-313): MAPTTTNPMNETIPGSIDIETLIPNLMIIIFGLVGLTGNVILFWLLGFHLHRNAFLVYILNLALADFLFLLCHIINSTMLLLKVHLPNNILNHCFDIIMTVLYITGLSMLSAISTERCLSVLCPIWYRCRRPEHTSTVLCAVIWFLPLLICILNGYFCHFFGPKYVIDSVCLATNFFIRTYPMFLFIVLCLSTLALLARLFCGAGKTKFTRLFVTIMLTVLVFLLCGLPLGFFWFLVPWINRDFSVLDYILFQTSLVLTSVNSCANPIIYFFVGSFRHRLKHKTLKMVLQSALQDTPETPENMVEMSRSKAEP
Text: (§1) Each of the twelve Mrgprs that were deleted in Mrgpr-clusterΔ^−/− mice were cloned into a mammalian expression vector (FIG. 1A), and transfected individually into human embryonic kidney (HEK) 293 cells. By fusing green fluorescent protein (GFP) to the C-termini of the Mrgpr coding sequences, both transfected cells and the proper membrane localization of the receptors was visualized. […] Increased [Ca^2+]i resulting from activation of the receptors was monitored by calcium imaging.
(§2) HEK293 cells were transfected with Mrgpr-expression constructs using Lipofectamine 2000 (Invitrogen) according to the manufacturer's protocol.

DRG neurons [1] = experiment: Calcium imaging of cultured dissociated DRG neurons; assay type: cell-based, mouse; conditions: for effect on CQ-induced [Ca2+]i increase: WT DRG neurons; for DRG neurons responding: Mrgpr-clusterΔ-/- mice
Description: Dorsal root ganglia from all spinal levels of 4-week old mice or rats were collected in cold DH10 (90% DMEM/F-12, 10% FBS, 100 U/ml penicillin, and 100 μg/ml Streptomycin, Gibco) and treated with enzyme solution (5 mg/ml Dispase, 1 mg/ml Collagenase Type I in HPBS without Ca^++ and Mg^++, Gibco) at 37° C. Following trituration and centrifugation, cells were resuspended in DH10, plated on glass cover slips coated with poly-D-lysine (0.5 mg/ml, Stoughton, Mass.) and laminin (10 μg/ml, Invitrogen), cultured in an incubator (95% O2 and 5% CO2) at 37° C. and used within 24 hours.

mice = experiment: Scratching behavior after pruritogen injection in mice; assay type: in vivo, mouse; conditions: for total number of scratching bouts: first 30 min after CQ injection (200 μg/50 μl, 8 mM); for scratching in Mrgpr-clusterΔ-/- mice compared with WT: 30 min, histamine 10 μmol, compound 48/80 100 μg/50 μl, CQ 200 μg/50 μl, BAM8-22 50 μl of 1 mM
Text: Kuraishi et al., (1995). […] F. (2007) Nature 448, 700-703).

MrgprA1 [2] = target: T2, MrgprA1 (Mus musculus, UniProt Q91WW5); experiment: Rescue: Mrgpr-clusterΔ-/- DRG neurons electroporated with Mrgpr construct; assay type: cell-based; set-up: expressed in transfected cells; host or cells: dissociated adult DRG neurons of Mrgpr-cluster-deleted mice
T2 sequence (Q91WW5 1-304): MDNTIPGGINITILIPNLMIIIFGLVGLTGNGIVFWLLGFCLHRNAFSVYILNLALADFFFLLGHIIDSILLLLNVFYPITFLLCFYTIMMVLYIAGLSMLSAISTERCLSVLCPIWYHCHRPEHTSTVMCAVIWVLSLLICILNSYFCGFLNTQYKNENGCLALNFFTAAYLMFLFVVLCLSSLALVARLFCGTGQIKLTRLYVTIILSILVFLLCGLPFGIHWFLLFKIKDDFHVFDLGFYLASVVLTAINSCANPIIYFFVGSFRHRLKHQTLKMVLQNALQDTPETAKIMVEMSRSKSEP
Description: (§6) To determine whether MrgprA3 or MrgprX1 can rescue the phenotypes of DRG neurons from Mrgpr-clusterΔ^−/− mice, the Mrgpr expression constructs used in the heterologous studies were electroporated into dissociated adult DRG neurons from these mice. After 24 hour in culture, expression and membrane localization of the transfected Mrgprs in the mutant neurons could be readily visualized by GFP (FIG. 8G).

[3] = cited from earlier work
MrgprX1 [4] = target: T3, MrgprX1 (Homo sapiens, UniProt Q96LB2); experiment: Rescue: Mrgpr-clusterΔ-/- DRG neurons electroporated with Mrgpr construct; assay type: cell-based, mouse
T3 sequence (Q96LB2 whole entry): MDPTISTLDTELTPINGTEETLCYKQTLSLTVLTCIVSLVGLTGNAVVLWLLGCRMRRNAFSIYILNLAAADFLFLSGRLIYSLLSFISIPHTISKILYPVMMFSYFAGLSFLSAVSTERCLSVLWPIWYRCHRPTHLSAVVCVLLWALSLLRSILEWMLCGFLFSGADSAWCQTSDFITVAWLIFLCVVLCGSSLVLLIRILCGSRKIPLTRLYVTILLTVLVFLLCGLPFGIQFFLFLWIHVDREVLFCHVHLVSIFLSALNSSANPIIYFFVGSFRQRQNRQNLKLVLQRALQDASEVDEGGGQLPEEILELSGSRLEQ
Description: as §6

DRG neurons [5] = experiment: Whole-cell current-clamp recording of action potentials in DRG neurons; assay type: cell-based, mouse; conditions: CQ 1 mM
Text: To determine whether CQ can directly induce action potentials (APs) in dissociated DRG neurons, using whole-cell patch clamp recording. […] These studies provide strong evidence that CQ can directly excite a small subpopulation of sensory neurons in DRG and that Mrgprs are required for this effect. Similar to the mouse results, CQ induces robust activation in a subset of rat DRG neurons as determined by both an increase in [Ca^2+]i and generation of APs (FIG. 4).
Patch pipettes had resistances of 2-4 MΩ. […] All experiments were performed at room temperature ([…]).

MrgprA3 [6] = target: T4, MrgprA3 (Mus musculus, UniProt Q91WW3); experiment: Rescue: Mrgpr-clusterΔ-/- DRG neurons electroporated with Mrgpr construct; assay type: cell-based
T4 sequence (Q91WW3 1-302): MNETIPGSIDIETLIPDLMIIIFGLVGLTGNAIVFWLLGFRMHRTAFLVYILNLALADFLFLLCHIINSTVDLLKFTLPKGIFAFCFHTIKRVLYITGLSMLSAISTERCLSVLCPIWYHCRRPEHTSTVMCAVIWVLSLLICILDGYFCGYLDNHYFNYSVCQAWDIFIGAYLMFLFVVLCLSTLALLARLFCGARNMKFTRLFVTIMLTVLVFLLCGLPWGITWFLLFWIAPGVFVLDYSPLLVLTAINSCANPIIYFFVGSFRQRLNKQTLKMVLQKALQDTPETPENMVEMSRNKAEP
Description: as §6

MrgprA3 [7] = target: T4, MrgprA3; experiment: Calcium imaging of HEK293 cells transfected with Mrgpr-GFP constructs; assay type: cell-based; set-up: expressed in transfected cells; host or cells: HEK293
Text: as §1
(§3) Serotonin also has a bicyclic structure. […] Quinine is another drug used to treat malaria and its side effects also include itch. However, it is unclear if quinine-induced itch is an allergic response.
(§4) HEK293 cells were cultured in growth medium consisted of 90% DMEM, 10% fetal bovine serum, 100 U/ml penicillin, and 100 μg/ml Streptomycin (Invitrogen) at 37° C. in the presence of […] and 5% CO2. HEK293 cells were transfected with Mrgpr-expression constructs using Lipofectamine 2000 (Invitrogen) according to the manufacturer's protocol.

[8] = cited from earlier work; remark: listed apart in the source
MrgprX2 = target: T5, MrgprX2 (Homo sapiens, UniProt Q96LB1); experiment: Calcium imaging of transfected HEK293 cells; assay type: cell-based
T5 construct: expressed in transfected cells; host or cells: HEK293
T5 sequence (Q96LB1 1-330): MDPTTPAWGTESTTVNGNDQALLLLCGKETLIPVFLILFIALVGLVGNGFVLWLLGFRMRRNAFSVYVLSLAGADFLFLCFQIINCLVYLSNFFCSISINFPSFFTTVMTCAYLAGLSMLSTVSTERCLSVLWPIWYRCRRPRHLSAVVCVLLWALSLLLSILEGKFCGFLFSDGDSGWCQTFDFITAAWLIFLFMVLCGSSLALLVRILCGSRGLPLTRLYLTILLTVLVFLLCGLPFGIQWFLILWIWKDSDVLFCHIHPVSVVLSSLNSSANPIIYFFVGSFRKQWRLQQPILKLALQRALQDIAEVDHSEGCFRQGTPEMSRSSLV
Text: (§5) The human Mrgpr family (i.e. MrgprXs) is much smaller than the murine family.

MrgprX3 = target: T6, MrgprX3 (Homo sapiens, UniProt Q96LB0); experiment: Calcium imaging of transfected HEK293 cells; assay type: cell-based
T6 construct: expressed in transfected cells; host or cells: HEK293
T6 sequence (Q96LB0 whole entry): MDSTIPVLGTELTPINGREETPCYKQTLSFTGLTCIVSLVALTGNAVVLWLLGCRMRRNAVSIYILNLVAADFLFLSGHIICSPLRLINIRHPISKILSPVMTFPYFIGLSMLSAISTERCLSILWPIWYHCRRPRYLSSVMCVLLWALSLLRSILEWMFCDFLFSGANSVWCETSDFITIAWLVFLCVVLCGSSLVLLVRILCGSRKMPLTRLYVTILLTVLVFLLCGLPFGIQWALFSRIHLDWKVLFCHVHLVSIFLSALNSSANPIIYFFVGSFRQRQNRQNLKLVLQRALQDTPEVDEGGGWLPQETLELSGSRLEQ
Text: as §5

MrgprC11 = target: T7, MrgprC11 (Mus musculus, UniProt Q8CIP3); experiment: Calcium imaging of HEK293 cells transfected with Mrgpr-GFP constructs; assay type: cell-based; conditions: BAM8-22 2 μM
T7 construct: expressed in transfected cells; host or cells: HEK293
T7 sequence (Q8CIP3 1-322): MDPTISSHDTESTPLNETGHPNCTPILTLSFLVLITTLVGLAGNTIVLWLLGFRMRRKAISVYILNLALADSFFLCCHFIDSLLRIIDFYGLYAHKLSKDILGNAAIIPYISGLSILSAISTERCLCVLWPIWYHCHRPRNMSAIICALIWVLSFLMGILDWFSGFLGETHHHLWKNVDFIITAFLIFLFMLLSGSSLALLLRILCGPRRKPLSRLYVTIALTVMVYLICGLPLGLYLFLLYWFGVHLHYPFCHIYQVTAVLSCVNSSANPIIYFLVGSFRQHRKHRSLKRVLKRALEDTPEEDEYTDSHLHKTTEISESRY
Text: as §1, §2

rat MrgprC = target: T8, rat MrgprC (Rattus norvegicus, UniProt Q8R4G1); experiment: Rescue: Mrgpr-clusterΔ-/- DRG neurons electroporated with rat Mrgpr, calcium imaging
T8 sequence (Q8R4G1 1-323): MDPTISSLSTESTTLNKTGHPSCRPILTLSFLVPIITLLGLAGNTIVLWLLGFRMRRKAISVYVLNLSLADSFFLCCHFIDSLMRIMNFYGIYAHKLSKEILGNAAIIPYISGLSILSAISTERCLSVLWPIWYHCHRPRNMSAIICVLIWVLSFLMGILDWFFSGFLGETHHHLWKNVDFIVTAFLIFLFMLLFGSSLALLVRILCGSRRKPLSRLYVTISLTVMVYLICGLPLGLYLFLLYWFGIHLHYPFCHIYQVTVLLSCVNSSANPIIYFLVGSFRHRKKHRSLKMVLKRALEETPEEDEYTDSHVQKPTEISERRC

MrgprA1 [9] = target: T2, MrgprA1; experiment: Calcium imaging of HEK293 cells transfected with Mrgpr-GFP constructs; assay type: cell-based; set-up: expressed in transfected cells; conditions: CQ 1 mM, FMRF 2 μM
Text: as §1, §2

MrgprX1 [10] = target: T3, MrgprX1; experiment: as above; assay type: cell-based; conditions: for activation of MrgprX1 (increased [Ca2+]i): BAM8-22 2 μM
Description: as §5, §3, §4

rats = experiment: Scratching behavior after intradermal injection in rats; conditions: 500 μg/50 μl, first 30 min
histamine H1 receptor = histamine H1 receptor (Homo sapiens, UniProt P35367); conditions: HEK293 cells; histamine 50 μM
histamine H1 receptor, sequence (P35367 whole entry, species assumed): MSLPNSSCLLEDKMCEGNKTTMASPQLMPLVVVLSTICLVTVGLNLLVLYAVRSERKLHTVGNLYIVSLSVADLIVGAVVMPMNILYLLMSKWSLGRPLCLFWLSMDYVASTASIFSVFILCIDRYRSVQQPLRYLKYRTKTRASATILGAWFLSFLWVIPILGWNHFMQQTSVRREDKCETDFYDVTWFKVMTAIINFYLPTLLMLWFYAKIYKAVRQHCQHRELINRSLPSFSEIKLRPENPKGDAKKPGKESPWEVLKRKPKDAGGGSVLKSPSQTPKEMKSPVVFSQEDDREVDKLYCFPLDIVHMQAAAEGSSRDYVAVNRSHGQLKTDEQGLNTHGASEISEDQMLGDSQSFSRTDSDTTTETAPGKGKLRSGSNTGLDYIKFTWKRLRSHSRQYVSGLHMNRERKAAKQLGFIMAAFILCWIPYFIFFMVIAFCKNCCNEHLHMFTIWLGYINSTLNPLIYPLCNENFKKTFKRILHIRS
Text: as §1, §4

Molecule: NPFF: mammalian neuropeptide FF, peptide agonist of MrgprA4
response of MrgprA4-expressing cells (MrgprA4): respond

Molecule: N.N.N.N.N.N.N.N.N.N.N.N.N.N.[Cl-].[Cl-].[Cl-].[Cl-].[Cl-].[Cl-].[O-2].[O-2].[Ru+3].[Ru+3].[Ru+4] [Ruthenium red]
effect on CQ-induced [Ca2+]i increase (DRG neurons [1]): severely attenuated

MrgprA1-electroporated neurons eliciting a few APs (MrgprA1 [2]): 3 out of 7
[Ca2+]i response of MrgprA1-electroporated mutant neurons (MrgprA1 [2]): only a small portion responded
MrgprX1-electroporated GFP-positive neurons generating a train of APs (MrgprX1 [4]): 5 out of 7
[Ca2+]i response of MrgprX1-electroporated mutant neurons (MrgprX1 [4]): sensitivity
[Ca2+]i response of MrgprA3-expressing mutant neurons (MrgprA3 [6]): showed increased [Ca^2+]i
action potentials in MrgprA3-expressing mutant neurons (MrgprA3 [6]): generated numerous APs
activation of MrgprA3 (increased [Ca2+]i) (MrgprA3 [7]): strong response
EC50 (MrgprA3 [7]; dose-response, calcium imaging): 27.6 ± 2.03 µM
response of MrgprX2-expressing cells (MrgprX2): completely insensitive
response of MrgprX3-expressing cells (MrgprX3): completely insensitive
response of MrgprC11-expressing cells (MrgprC11): failed to respond
response of MrgprA4-expressing cells (MrgprA4): insensitive
response of rat MrgprC-electroporated Mrgpr-deficient neurons (rat MrgprC): did not
activation of MrgprX1 (increased [Ca2+]i) (MrgprX1 [10]): responded
EC50 (MrgprX1 [10]; dose-response, calcium imaging): 297.7 ± 2.1 µM
Molecule: CCN(CC)CCCC(C)Nc1ccnc2cc(Cl)ccc12 (stereo not shown) [CQ, Chloroquine]
occurrence of the first scratching behavior (mice; Mrgpr-clusterΔ-/- (KO) mice): 280.5 ± 35.0 s
total number of scratching bouts (mice; Mrgpr-clusterΔ-/- mice): 104±13
occurrence of the first scratching behavior (mice; WT mice): 57.8 ± 25.4 s
time at which scratching peaked (mice; WT mice): ≤ 15 min
first bout observed after injection (mice; WT mice, typical): 1 to 2 min
total number of scratching bouts (mice; WT mice): 278±21
patients refusing further treatment because of unbearable itch ([3]; African patients): ~30%
incidence of itch as side effect ([3]; black Africans): up to 70%
neurons showing any response (DRG neurons [5]; Mrgpr-clusterΔ-/- mice): none of 11
action potentials in CQ-sensitive neurons (DRG neurons [5]; WT DRG): displayed a train of APs
concentration in patient plasma ([8]; plasma): micromolar range
concentration reached in skin and other pigmented tissues ([8]; skin): high micromolar to millimolar concentrations
DRG neurons responding (DRG neurons [1]): none of the neurons
percentage of DRG neurons responding with increased [Ca2+]i (DRG neurons [1]; WT mice, CQ 1 mM, BAM8-22 2 μM): ~4.4% and 4-5%
reduction of calcium responses on sequential application (DRG neurons [1]; WT neurons): ~20%
response of MrgprA1-transfected cells (increased [Ca2+]i) (MrgprA1 [9]): fewer than half of MrgprA1-tranfected cells responded
scratching responses (rats): evoked profound scratching responses

Molecule: FMRF: molluscan FMRFamide, peptide agonist of MrgprA1
[Ca2+]i response of MrgprA1-electroporated mutant neurons (MrgprA1 [2]; FMRF 2 μM): strong response
response of MrgprA1-transfected cells (increased [Ca2+]i) (MrgprA1 [9]): all transfected cells responded

Molecule: BAM8-22: bovine adrenal medulla peptide; MrgprC11-specific agonist (VGRPEWWMDYQKRYG)
scratching in Mrgpr-clusterΔ-/- mice compared with WT (mice): dramatic reduction
scratching behavior evoked (mice; WT mice, intradermal injection, 50 μl of 1 mM): induced strong scratching behavior
[Ca2+]i response of MrgprX1-electroporated mutant neurons (MrgprX1 [4]): sensitivity
activation of MrgprA3 (increased [Ca2+]i) (MrgprA3 [7]): did not respond
DRG neurons responding (DRG neurons [1]): no DRG neurons
response of MrgprC11-expressing cells (MrgprC11): responded
response of rat MrgprC-electroporated Mrgpr-deficient neurons (rat MrgprC; BAMS-22 10 μM): responded
activation of MrgprX1 (increased [Ca2+]i) (MrgprX1 [10]): responded

Molecule: O=C(O)CN(CCOCCOCCN(CC(=O)O)CC(=O)O)CC(=O)O [EGTA]
effect on CQ-induced [Ca2+]i increase (DRG neurons [1]): almost completely blocked

activation of MrgprA3 (increased [Ca2+]i) (MrgprA3 [7]): completely failed to activate
activation of MrgprX1 (increased [Ca2+]i) (MrgprX1 [10]): completely failed to activate
Molecule: c1ccc2ncccc2c1 [quinoline]
scratching behavior evoked (mice; both WT and mutant mice): did not evoke any scratching behavior
scratching responses (rats): did not

activation of MrgprA3 (MrgprA3 [7]; 100 μM): failed to activate
Molecule: NCCc1c[nH]c2ccc(O)cc12 [Serotonin]

Molecule: NCCc1c[nH]cn1 [histamine]
scratching in Mrgpr-clusterΔ-/- mice compared with WT (mice): No significant difference
activation of MrgprA3 (increased [Ca2+]i) (MrgprA3 [7]): did not respond
percentage of DRG neurons responding, WT versus mutant cultures (DRG neurons [1]; histamine 50 μM): identical
response of histamine H1 receptor-expressing cells (histamine H1 receptor): strong response

activation of MrgprA3 (increased [Ca2+]i) (MrgprA3 [7]): weakly activates
Molecule: C=C[C@H]1C[N@@]2CC[C@H]1C[C@H]2[C@H](O)c1ccnc2ccc(OC)cc12 [quinine]
